Test results from ChEMBL document CHEMBL3046930, “Germination and growth inhibitors from wheat (Triticum aestivum L.) husks” (2002).
Calls of active or inactive are those of the source.

Columns and labels:
Format in all cases: functional
Triticum aestivum [1] = assay: Inhibition of intact Triticum aestivum (wheat) seed germination assessed as appearance of sprouts at 500 ppm after 4 days relative to wheat grains RL4137 germination
Triticum aestivum [2] = assay: Inhibition of intact Triticum aestivum (wheat) seed germination assessed as appearance of distinct rootlets at 500 ppm after 4 days relative to wheat grains RL4137 germination
Triticum aestivum [3] = assay: Growth inhibition of intact Triticum aestivum (wheat) seed assessed as appearance of sprouts at 500 ppm after 4 days relative to wheat grains RL4137 germination
Triticum aestivum [4] = assay: Growth inhibition of intact Triticum aestivum (wheat) seed assessed as appearance of distinct rootlets at 500 ppm after 4 days relative to wheat grains RL4137 germination

C[C@@H](O)c1ccccc1
active: inhibition (Triticum aestivum [1]) | inhibition (Triticum aestivum [2]) | growth inhibition (GI) (Triticum aestivum [3]) | growth inhibition (GI) (Triticum aestivum [4])

CC1(C)CCC[C@]2(C)OC(=O)C=C12
active: inhibition (Triticum aestivum [1]) | inhibition (Triticum aestivum [2]) | growth inhibition (GI) (Triticum aestivum [3]) | growth inhibition (GI) (Triticum aestivum [4])

CC1(C)CCC[C@@]2(C)OC(=O)C=C12
active: inhibition (Triticum aestivum [1]) | inhibition (Triticum aestivum [2]) | growth inhibition (GI) (Triticum aestivum [3]) | growth inhibition (GI) (Triticum aestivum [4])

CC1(C)CCCC2(C)OC(=O)C=C12 (racemic)
active: inhibition (Triticum aestivum [1]) | inhibition (Triticum aestivum [2]) | growth inhibition (GI) (Triticum aestivum [3]) | growth inhibition (GI) (Triticum aestivum [4])

C[C@H](O)c1ccccc1
active: inhibition (Triticum aestivum [1]) | inhibition (Triticum aestivum [2]) | growth inhibition (GI) (Triticum aestivum [3]) | growth inhibition (GI) (Triticum aestivum [4])

CC(O)c1ccccc1 (racemic)
active: inhibition (Triticum aestivum [1]) | inhibition (Triticum aestivum [2]) | growth inhibition (GI) (Triticum aestivum [3]) | growth inhibition (GI) (Triticum aestivum [4])
